Experimental data as given in PubChem BioAssay AID743395 (Broad Institute, 2014).

System: HepG2 viability, CellTiter-Glo ATP luminescence, 72 h
Test: viability loss in human hepatoma cells – cell-based, CellTiter-Glo luminescence, cherry-pick, set 2, cytotoxicity control, dose response (AID 743395)

Structure (SMILES)	AC35 [µM]
COc1ccc(-c2ccc3c(c2)[C@H]2[C@H](CCN2S(=O)(=O)c2ccc(OC)cc2)[C@H](CO)N3C)cc1	6.5
COc1cc(OC)cc(-c2cc3ccc(OC)cc3cn2)c1	4.68
Cc1nn2cc(-c3cccc(Cl)c3)cnc2c1Br	11.1
O=C(OCc1ccc(Br)cc1)c1cc([N+](=O)[O-])ccc1N1CCOCC1	10.8
CCC(=O)N1CC2(CCN(Cc3ccc(Cl)cc3)CC2)c2c([nH]c3cc(OC)ccc23)[C@H]1CO	9.3
CCN(CC)CCn1nc2c3c(cccc3c1=O)-c1ccccc1-2	2.82
COc1cc(C(=O)N/N=C(\c2ccccc2)c2ccccn2)cc(OC)c1OC	1.46
COc1ccc(C)cc1Nc1c2c(nc3ccccc13)CCC2	8.79
COc1cccc(N2CCN(C(=O)c3ccc(CS(=O)c4ccc(C)cc4)o3)CC2)c1 (stereo not drawn)	0.833
Cc1c(C2Nc3ccccc3C2C)[nH]c2ccccc12 (stereo not drawn)	6.86
CCN(CC)C(=O)c1oc2ccc(S(=O)(=O)N3CC(C)CC(C)C3)cc2c1C (stereo not drawn)	12.9
Cc1onc(-c2ccccc2Cl)c1C(=O)N1CCN(c2cccc(Cl)c2)CC1	13.5
C#C[C@]1(O)CC[C@H]2[C@@H]3CCc4cc(OC5CCCC5)ccc4[C@H]3CC[C@@]21C	21
COc1ccc(S(=O)(=O)N2CC[C@@H]3[C@@H](CO)Nc4ccc(-c5cccc(C#N)c5)cc4[C@@H]32)cc1	14
COc1cc(OC)cc(C(=O)c2c(C)c(C#N)c3ccccn23)c1	9.29
CCCCC(=NCCc1c(C)[nH]c2ccc(OC)cc12)C1=C(O)CC(c2ccccc2)CC1=O (stereo not drawn)	8.11
Cc1cc(NCc2ccccn2)n2nc(C)c(-c3ccccc3)c2n1	10
COc1cc(NC(=O)N2CCNC2=O)cc(C(=O)Nc2cccc(C(F)(F)F)c2)c1	1.54
COc1ccc(S(=O)(=O)N(C(=O)C(C)C)c2ccc3oc(=O)sc3c2)cc1	17.1

Structure (SMILES)	AC35 [µM]
COc1cc(C2CC(=O)N(c3ccc(C)cc3)C(=O)C2)cc(OC)c1OC	10.7
Cc1cccc(Nc2nc(N)nc(-c3oc4ccccc4c3C)n2)c1	15.4
Clc1ccc2c(c1)-c1ccccc1C1=NCCN12	3.06
C[C@@H]1O[C@@H](O[C@@H]2C=C3CC[C@@H]4C(CC[C@]5(C)[C@@H](c6ccc(=O)oc6)CC[C@]45O)[C@@]3(C)CC2)[C@H](O)[C@H](O)[C@H]1O (stereo partly drawn)	0.116
O=C1c2cccc3c(O)ccc(c23)C(=O)N1Cc1ccco1	15.6
CCOC(=O)c1c(C)[nH]c(C(=O)N/N=C\c2ccccc2O)c1C	2.34
C=CCN1c2ccccc2[C@]23C[C@@H](C(=O)OC)N(C(=O)c4cccs4)C2=NC(C(=O)OC)=C(C(=O)OC)[C@H]13	19.1
CC(=NNC(=S)N(Cc1ccccn1)Cc1ccccn1)c1cnccn1	2.87
COC(=O)c1cn(NC(=O)c2cc([N+](=O)[O-])ccc2F)c(=O)c2ccccc12	0.521
C[C@H](CO)N1C[C@H](C)[C@@H](CN(C)Cc2ccc(Cl)c(Cl)c2)Oc2ccc(NC(=O)Nc3ccc(C(F)(F)F)cc3)cc2CC1=O	10.5
O=C(c1cccc(F)c1)N1CC[C@@H]2[C@H](CO)Nc3ccc(-c4ccccc4F)cc3[C@@H]21	18.1
C=CCCC(=O)Nc1nc(C)c(-c2csc(Nc3cc(OC)ccc3OC)n2)s1	5.68
COC(=O)c1ccc(/C=C/c2c(-c3ccc(OC)cc3)oc3ccc(N4CCOCC4)cc23)cc1	16
C[C@H]1CN([C@@H](C)CO)C(=O)c2cccc(NC(=O)Nc3ccc(C(F)(F)F)cc3)c2O[C@H]1CN(C)C(=O)NC1CCCCC1	11.2
COc1ccc(C2c3ccc4ccccc4c3Oc3ncn(CCCO)c(=N)c32)cc1OC (stereo not drawn)	18.7
C/C(=N\NC(=O)c1c(Cl)c(C)nn1C)c1ccc(NC(=O)C2CCC2)cc1	4.43
C=C1C(=O)[C@]23C[C@H]1CC[C@H]2[C@]1(C)[C@@H](OC(C)=O)CC[C@@](C)(C(=O)O)[C@H]1C[C@@H]3O	11.3
Cc1nn(S(=O)(=O)c2ccc(Cl)cc2)c(C)c1Sc1ccc([N+](=O)[O-])cc1	21.8
CN(C)CCn1c2ccccc2c2nc3ccc([N+](=O)[O-])cc3cc21	20.8
